US20090123581A1, “COLLAGEN CROSS-LINKING AGENTS ON DENTAL RESTORATIVE TREATMENT AND PREVENTIVE DENTISTRY” (THE BOARD OF TRUSTEES OF THE UNIVERSITY OF ILLINOIS, priority 2006, published 2009)

Assays:
[1] = Tensile bond strength (TBS) of a total-etch adhesive with or without proteolytic challenge (Example 5); design: species or system human; settings: for TBS (tensile bond strength): 5% glutaraldehyde 1 hour after etching, One-Step adhesive
Protocol: To evaluate the effect of glutaraldehyde on the tensile bond strength (TBS) of a total-etch adhesive with or without proteolytic challenge, the experiment described below was performed.
Ten human molars were polished until occlusal dentin was exposed and were divided according to the surface treatment: a control (no treatment) treatment (G1) and a 5% glutaraldehyde treatment (G2). Samples of G1 were etched with 37% phosphoric acid, rinsed, blotted dried, and One-Step (Bisco, Richmond, BC, Canada) was applied, followed by application of a composite resin used to build-up a “crown.” G2 was treated in the same manner, except that after etching, 5% glutaraldehyde was applied on the surface for 1 hour. After 24 hours, samples were sectioned into 1.0×1.0 mm beams. The beams were subdivided according to the proteolytic challenge: stored in water for 2 hours (no challenge) and stored in 1.5% NaOCl solution for 2 hours. Then samples were rinsed and tested in tensile at a crosshead speed of 1 mm/min using a universal testing machine. Data were statistically analyzed using ANOVA and Fisher's PLSD tests (p<0.05).

[2] = Microtensile bond strength of adhesive restoration to sound dentin (Example 2); design: species or system human; settings: 5% glutaraldehyde for 5 minutes, versus control (p=0.2395)
Protocol: (§1) Effect of an exogenous collagen cross-linking agent on dentin bonding: In order to analyze the contribution of exogenous collagen cross-linking to sound and caries-affected dentin bonding, demineralized dentin surfaces were treated with 5% glutaraldehyde and the restored specimens were subjected to microtensile bond strength testing.
(§2) Specimen preparation: Six human molars stored frozen (−20° C.) for less then one month were used. The teeth presented occlusal caries in which enamel was visually intact. The teeth were thawed, cleaned of adhering soft tissues, and the occlusal surfaces were ground flat with #320 and #600 grit Silicon Carbide (Sic) papers under running water to remove the enamel and expose flat middle dentin, respectively. […]
(§3) Microtensile bond test (MTB): After 24 hrs in water at 37° C., the teeth were sectioned into 0.7±0.2 mm thick slabs, and the interfaces trimmed to an hourglass shape using a fine diamond bur to produce a cross-sectional area of 1 mm^2. The thickness of the slabs and the width of the trimmed surface were measured using a digital caliper (Fisher Scientific, New Jersey, N.J.) and specimens in sound and caries-affected dentin were obtained. […] MPa were determined by dividing the fracture load by the cross-sectional area of the interface.

[3] = Microtensile bond strength of adhesive restoration to caries-affected dentin (Example 2); design: species or system human; settings: caries-affected demineralized dentin; 5% glutaraldehyde for 5 minutes; versus control
Protocol: as §1, §2, §3

[4] = UTS of demineralized crown dentin tested parallel and perpendicular to dentinal tubules (Example 4); settings: 1 hour
Protocol: Specific synthetic and natural chemicals may increase the number of collagen cross-links within tooth dentin. To evaluate the effects of two cross-linking agents of different concentrations on the UTS of demineralized crown dentin tested parallel and perpendicular to dentinal tubules, the experiment described below was performed. FIG. 6 illustrates the steps of specimen preparation and treatment.
Twenty sound molars were sectioned into 0.5±0.1 mm thick slabs that were further trimmed to 0.5±0.1 mm according to the tubule orientation (parallel-PR or perpendicular-PE). Specimens were demineralized with 10% phosphoric acid and divided into 10 groups according to treatment: control (water solution)/PR; control/PE, 6.5% proanthocyanidin (PA)/PR, 6.5% PA/PE; 0.65% PA/PR; 0.65% PA/PE; 25% glutaraldehyde (GD)/PR; 25% GD/PE; 5% GD/PR; 5% GD/PE. Specimens were kept in their respective solutions for 1 hour. To assess UTS, specimens were subjected to tensile forces at a crosshead speed of 1 mm/min. Statistical analysis was performed using two-way ANOVA and Fisher's PLSD test (p<0.05).

O=CCCCC=O [GD, glutaraldehyde]
TBS (tensile bond strength) ([1]; No challenge (water 2 hours)): 71.11 (12.20)A MPa
TBS (tensile bond strength) ([1]; stored in 1.5% NaOCl 2 hours): 65.91 (18.06)AB MPa
change in TBS values after NaOCl storage ([1]; 5% glutaraldehyde, 1.5% NaOCl 2 hours): not significantly affected
effect on bond strength [2]: no significant effect
increase in the bond strength values [3]: 35%
UTS ([4]; 5% GD, tested Parallel to dentinal tubules): 9.8 ± 1.5^BCD,b MPa
UTS ([4]; 5% GD, tested Perpendicular to dentinal tubules): 15.7 ± 4.9^BCD,a MPa
UTS ([4]; 25% GD, tested Parallel to dentinal tubules): 10.7 ± 2.7^B,b MPa
UTS ([4]; 25% GD, tested Perpendicular to dentinal tubules): 18.6 ± 5.7^B,a MPa
